Measurements: patent US9809640B2, “ApoE peptide dimers and uses thereof” (priority 2010, dated 2017)
Like-named read-outs stand apart in the source and are kept apart here. Non-standard residues stand in square brackets, D forms with d. Residues, ends and D or L forms follow the SMILES beside them. No end group written: not given here. Aib = CC(C)(N)C(=O)O

Legend:
BV2 microglia cells = test: LPS-induced nitric oxide production in BV2 microglia cells; assay type: cell-based; settings: 50% suppression of nitric oxide release from BV2 cells following LPS stimulation
Protocol: FIG. 1. COG 112 inhibits LPS-induced production of inflammatory cytokines in BV2 microglia cells. Inhibition curves for COG112 in the production of NO (green squares), TNFα (red diamonds), and IL-6 (blue triangles) by BV2 microglia. Compounds were added to the final concentrations indicated on the graph along with 100 ng/mL of LPS. After 24 hours the media was removed and assayed by two-site ELISA (BioSource) and quantitated relative to a standard curve on the same plate.
FIG. 3. NO Inhibition curve for COG449. BV2 microglia were treated with COG449 at the final concentrations indicated on the graph, along with 100 ng/mL of LPS. After 24 hours the media was removed and assayed by two-site ELISA (BioSource) and quantitated relative to a standard curve on the same plate.
(§1) We also evaluated the various peptides for efficacy in suppressing nitric oxide production induced by LPS stimulation of BV2 microglia cells as a measure of anti-inflammatory activity as well as the maximum dose tolerated in mice (Table I and FIG. 6A). For the LPS assay, EC50 is the concentration of compound that caused a 50% suppression of nitric oxide release from BV2 cells following LPS stimulation. For mouse toxicity, MTD is the maximum dose of the compound that can be given by intravenous injection without causing deaths after 24 hrs. […] Coupling the ApoE domain to a protein transduction domain further enhanced the potency of the dimers.
Low passage BV2 microglial cell cultures are maintained in 10% HI (Heat Inactivated) FBS DMEM media (supplemented with MEM NEAA (Non-Essential Amino Acids), sodium pyruvate and Pen-Strep) and continuously cultured until needed. To determine the IC50 values for NO production, peptides are added to BV2 cultures in 1% HI FBS DMEM media (supplemented with MEM NEAA and sodium pyruvate) at a range of final assay concentrations from 1.0 μM in 2 fold dilutions to 7.8 nM followed immediately by addition of LPS (100 ng/mL final concentration) as previously described (Laskowitz et al. (2001) Exp Neurol, Vol. 167(1): 74-85). After incubating for 18±1 hours, conditioned media is removed for analysis of nitrite (the stable oxidation product of released nitric oxide) by the Griess colorimetric assay (Promega). Remaining cells are assayed for viability in an MTT assay (Promega) and the nitrite assay values are normalized for each concentration using the percent viability of cells in the MTT assay. […] Typically, the absence of LPS exposure to BV2 cells results in levels below the limit of detection in our assays. Similarly, addition of any of the peptides up to 25 μM without LPS results in undetectable NO levels.

B-CLL cells = test: Cytotoxicity on patient-derived B-CLL cells (MTS assay); settings: for Fold Change: CLL EC50 relative to COG056 (rev133) = 1.0
From the text: FIG. 5A: Dose response curves for COG449 cytotoxicity on CLL cells from 4 leukemia patients. Human CLL cells were isolated from blood samples and assayed for COG449 cytotoxicity. […] FIG. 5B: Dose response curves for COG445 on CLL cells from 7 patients or normal B-cells from 5 patients. Human CLL cells and PBMC were isolated and assayed for cytotoxicity of COG445.
Blood from CLL patients was collected and CD5+/CD19+ CLL cells were isolated using the RosetteSep™ Human B-Cell Enrichment Cocktail, according to the manufacturer's instructions, and treated with COG compounds. Compounds were applied to B-CLL cells (2.5×10^5 cells/well in a 96 well plate), after which the cells were treated for 72 hours.
Normal B-cells from volunteers and B-CLL cells from patients are isolated using the RosetteSep™ Human B Cell Enrichment Cocktail according to the manufacturer's instructions. This method depletes whole blood of T cells, monocytes, and NK cells using a proprietary antibody cocktail that cross-links unwanted cells in human whole blood to multiple red blood cells (RBCs) forming immunorosettes. This increases the density of the unwanted (rosetted) cells, such that they pellet along with the free RBCs when centrifuged over a buoyant density medium such as Ficoll-Paque®. This leaves the highly enriched B-cell or B-CLL cells at the interface between Ficoll and the plasma. The antibodies in the cocktail contain […] and anti-CD16 antibodies to remove T cells, monocytes, and NK cells, respectively. The purity of these B-cell and B-CLL preparations is then determined by flow cytometry.
For cytotoxicity assays, 3×10^6 CLL cells/well are cultured in 24 well tissue culture plates in 1.5 mL of Hybridoma SFM™ (Gibco, Long Island, N.Y.) as described by Levesque et al. (2001, 2003). All cultures are incubated at 37° C., 5% CO2 in air.

[1] = Mouse toxicity, maximum tolerated dose by intravenous injection; settings: in vivo, maximum dose by intravenous injection without deaths after 24 hrs
From the text: as §1

normal B-cells = test: Cytotoxicity on normal B-cells from volunteers; assay type: cell-based, human; settings: normal B-cells from volunteers
From the text: Normal B-cells from volunteers and B-CLL cells from patients are isolated using the RosetteSep™ Human B Cell Enrichment Cocktail according to the manufacturer's instructions. This method depletes whole blood of T cells, monocytes, and NK cells using a proprietary antibody cocktail that cross-links unwanted cells in human whole blood to multiple red blood cells (RBCs) forming immunorosettes. This increases the density of the unwanted (rosetted) cells, such that they pellet along with the free RBCs when centrifuged over a buoyant density medium such as Ficoll-Paque®. This leaves the highly enriched B-cell or B-CLL cells at the interface between Ficoll and the plasma. The antibodies in the cocktail contain anti-CD14, anti-CD2 and anti-CD16 antibodies to remove T cells, monocytes, and NK cells, respectively. The purity of these B-cell and B-CLL preparations is then determined by flow cytometry. Preparations typically average less than 2% CD3+ T-cells and less than 0.5% CD14+ monocytes. In the case of B-CLL cell isolation, we routinely obtain preparations that contain less than 1.5% normal CD19+/CD5− B-cells using this method.

U87MG glioblastoma cells = assay type: cell-based; settings: MTT
Protocol: FIG. 14A: Dose response curve of COG445 on proliferation of U87 (open circles) and MDA-MB-231 (filled circles) cells as measured by MTT reduction. FIG. 14B: Dose response curve of COG445 on proliferation of MDA-MB-231 cells as measured by cell count.
To determine whether ApoE peptide dimers were cytotoxic to other types of cancer, we evaluated the effect of three different ApoE BMOE-linked peptide dimers (COG449, COG492, COG493; see Table I) on the growth characteristics of U87MG glioblastoma cells. Various concentrations of COG449, COG492, COG493 or Sorafenib were used to treat U87MG glioblastoma cells and viable cells were quanititated using MTT. Sorafenib, which has previously been reported to be cytotoxic to glioblastoma cells (Yang et al. (2010) Mol Cancer Ther., Vol. 9(4):953-962), was used as a positive control.
Because COG445 inhibited Akt activation and downstream signaling, we examined the effects of COG445 on cellular proliferation. Adherent MB231 and U87 cells were grown for ˜24 hours in the presence of COG445 and cellular proliferation was measured by MTT reduction. […] Furthermore, COG445 inhibited MB231 cellular proliferation as determined by cell count (FIG. 14B). Approximately 6×10^4 cells were plated in growth media (RPMI+10% FBS) for 24-hours with increasing concentrations of COG445. […] However at concentrations ≧1 μM COG445, there appears to be a loss of cells. This is partially explained by decreased proliferation, although it is possible that the rate of cellular degradation was increased in the presence of COG445.

[2] = read-out: CLL EC50, B-CLL cells from patients, 72 hours, MTS assay

Compound | EC50 (BV2 microglia cells) | Fold Change (B-CLL cells) | EC50 (B-CLL cells; [2]) | MTD at 24 h [1] | EC50 (normal B-cells) | EC50 (B-CLL cells; read-out: ED50 cytotoxic potency (text, Table I), CLL cells) | cytotoxicity to U87MG cells (U87MG glioblastoma cells)
CC[C@H](C)[C@H](NC(=O)[C@H](CCCCN)NC(=O)[C@@H](NC(=O)[C@H](CCC(N)=O)NC(=O)[C@@H](N)CCCNC(=N)N)[C@@H](C)CC)C(=O)N[C@@H](Cc1c[nH]c2ccccc12)C(=O)N[C@@H](Cc1ccccc1)C(=O)N[C@@H](CCC(N)=O)C(=O)N[C@@H](CC(N)=O)C(=O)N[C@@H](CCCNC(=N)N)C(=O)N[C@@H](CCCNC(=N)N)C(=O)N[C@@H](CCSC)C(=O)N[C@@H](CCCCN)C(=O)N[C@@H](Cc1c[nH]c2ccccc12)C(=O)N[C@@H](CCCCN)C(=O)N[C@@H](CCCCN)C(=O)N[C@@H](CS)C(=O)N[C@@H](C)C(=O)N[C@@H](CO)C(=O)NC(C)(C)C(=O)N[C@@H](CC(C)C)C(=O)N[C@@H](CCCNC(=N)N)C(=O)N[C@@H](CCCCN)C(=O)N[C@@H](CC(C)C)C(=O)NC(C)(C)C(=O)N[C@@H](CCCCN)C(=O)N[C@@H](CCCNC(=N)N)C(=O)N[C@@H](CC(C)C)C(=O)N[C@@H](CC(C)C)C(=O)O [COG120, RQIKIWFQNRRMKWKK-C-AS(Aib)LRKL(Aib)KRLL (SEQ ID NO: 7)] (H-RQIKIWFQNRRMKWKKCAS[Aib]LRKL[Aib]KRLL-OH; N-terminus and C-terminus assumed) | < 1 µM | 12.6 | 1 µM | – | – | – | –
CC(=O)N[C@@H](CC(C)C)C(=O)N[C@@H](CCCNC(=N)N)C(=O)N[C@H](C(=O)N[C@@H](CCCNC(=N)N)C(=O)N[C@@H](CC(C)C)C(=O)N[C@@H](C)C(=O)N[C@@H](CO)C(=O)N[C@@H](Cc1c[nH]cn1)C(=O)N[C@@H](CC(C)C)C(=O)N[C@@H](CCCNC(=N)N)C(=O)N[C@@H](CCCCN)C(=O)N[C@@H](CC(C)C)C(=O)N[C@@H](CCCNC(=N)N)C(=O)N[C@@H](CCCCN)C(=O)N[C@@H](CCCNC(=N)N)C(=O)N[C@@H](CC(C)C)C(=O)N[C@@H](CC(C)C)C(N)=O)C(C)C [COG133, LRVRLASHLRKLRKRLL (SEQ ID NO: 3)] | – | – | – | 16 mg/kg | > 20 µM | 4.4 ± 1.5 µM | –
CC(C)C[C@H](NC(=O)[C@H](CC(C)C)NC(=O)[C@H](CCCNC(=N)N)NC(=O)[C@H](CCCCN)NC(=O)C(C)(C)NC(=O)[C@H](CC(C)C)NC(=O)[C@H](CCCCN)NC(=O)[C@H](CCCNC(=N)N)NC(=O)[C@H](CC(C)C)NC(=O)C(C)(C)NC(=O)[C@H](CO)NC(=O)[C@H](C)NC(=O)[C@H](CS)NC(=O)[C@H](CCCNC(=N)N)NC(=O)[C@H](CCCNC(=N)N)NC(=O)[C@H](CCCNC(=N)N)NC(=O)[C@H](CCC(N)=O)NC(=O)[C@H](CCCNC(=N)N)NC(=O)[C@H](CCCNC(=N)N)NC(=O)[C@H](CCCCN)NC(=O)[C@H](CCCCN)NC(=O)[C@H](CCCNC(=N)N)NC(=O)CNC(=O)[C@@H](N)Cc1ccc(O)cc1)C(=O)O [COG226, YGRKKRRQRRR-C-AS(Aib)LRKL(Aib)KRLL (SEQ ID NO: 6)] (H-YGRKKRRQRRRCAS[Aib]LRKL[Aib]KRLL-OH) | < 1 µM | 9.2 | 1.4 µM | – | – | – | –
CC(=O)N[C@@H](CSC1CC(=O)N(CCN2C(=O)CC(SC[C@H](NC(C)=O)C(=O)N[C@@H](CC(C)C)C(=O)N[C@@H](CCCNC(=N)N)C(=O)N[C@H](C(=O)N[C@@H](CCCNC(=N)N)C(=O)N[C@@H](CC(C)C)C(=O)N[C@@H](C)C(=O)N[C@@H](CO)C(=O)N[C@@H](Cc3c[nH]cn3)C(=O)N[C@@H](CC(C)C)C(=O)N[C@@H](CCCNC(=N)N)C(=O)N[C@@H](CCCCN)C(=O)N[C@@H](CC(C)C)C(=O)N[C@@H](CCCNC(=N)N)C(=O)N[C@@H](CCCCN)C(=O)N[C@@H](CCCNC(=N)N)C(=O)N[C@@H](CC(C)C)C(=O)N[C@@H](CC(C)C)C(N)=O)C(C)C)C2=O)C1=O)C(=O)N[C@@H](CC(C)C)C(=O)N[C@@H](CCCNC(=N)N)C(=O)N[C@H](C(=O)N[C@@H](CCCNC(=N)N)C(=O)N[C@@H](CC(C)C)C(=O)N[C@@H](C)C(=O)N[C@@H](CO)C(=O)N[C@@H](Cc1c[nH]cn1)C(=O)N[C@@H](CC(C)C)C(=O)N[C@@H](CCCNC(=N)N)C(=O)N[C@@H](CCCCN)C(=O)N[C@@H](CC(C)C)C(=O)N[C@@H](CCCNC(=N)N)C(=O)N[C@@H](CCCCN)C(=O)N[C@@H](CCCNC(=N)N)C(=O)N[C@@H](CC(C)C)C(=O)N[C@@H](CC(C)C)C(N)=O)C(C)C (some centres unmarked) [COG492, C-LRVRLASHLRKLRKRLL (SEQ ID NO: 15) <BMOE> C-LRVRLASHLRKLRKRLL (SEQ ID NO: 15)] | – | – | – | 25 mg/kg | – | – | cytotoxic
LLRKRLKRLHSALRVRL [COG056, LLRKRLKRLHSALRVRL (SEQ ID NO: 2), reference compound] | > 20 µM | 1.0 | 12.9 µM | – | – | – | –
